The values below are quoted from earlier work in patent US20250268950A1, “PRENATAL SUPPLEMENT” (Arizona Board of Regents on Behalf of Arizona State …, priority 2021, published 2025).

Like-named read-outs stand apart in the source and are kept apart here.

One series concerns pregnant women. The conditions noted are these: for decrease in anxiety symptoms / decrease in depression: RCT, 1 mg/day.
For series [1] the following is noted: for plasma level as % of level at 2500 mg: non-pregnant women.
The test system of series [2] is pregnant women and their infants. The conditions noted are these: maternal blood levels in the highest quartile; 397 ASD, 1034 controls.
Series [3] has the same test system. The conditions noted are these: prenatal with vitamin E and dietary intake in upper half (12.6-33.8 mg/day).
The subject of series [4] is non-pregnant women with polycystic ovary syndrome; diabetes.
The mark [5] stands for this setting: diabetes, meta-analysis of 22 randomized controlled trials.

Turning to `C=C1CCC(O)CC1=CC=C1CCCC2(C)C1CCC2C(C)CCCC(C)C` (stereo not shown) [Vitamin D], the “reduction of risk of preeclampsia” value in the series on pregnant women (400-600 IU/day during pregnancy, after confounder adjustment) is given as 29%. Also, in the series on pregnant women (800 IU/day (from 27%)), the “rate of maternal secondary hyperparathyroidism” value is 10%. For the same compound, the “asthma/recurrent wheeze at 0-3 yrs, adjusted OR” value with infants (combined analysis of two studies, 2400 IU/day and 4000 IU/day) is on record as 0.74. The “blood levels of vitamin D” value in series [1] (2000-4000 IU/day) was “higher blood levels than just 400 IU/day”. Also, for the setting “Table 12”, the “Tolerable Upper Limit for Pregnant Women” value is recorded as 4000 IU.
Take `O=C1O[C@H]([C@@H](O)CO)C(O)=C1O` [Vitamin C]: in the series with pregnant women (Cochrane meta-analysis, vitamin C alone, 170 participants), the “risk of term PROM, RR” value is 0.55. Also, the “risk of preterm PROM, RR” value with pregnant women (Cochrane meta-analysis, vitamin C alone, 1282 participants, five studies) is recorded as 0.66. Moreover, the “rate of urinary tract infections during pregnancy” value in the series on pregnant women (Mexico, 100 mg/day (vs. 29%)) is 13%. Also, in the series on pregnant women (Uganda, 400 mg (vs. 28% for placebo (so in the source))), the hospitalization during pregnancy is 42%. In addition, the “infant pulmonary function and wheezing” value in the series with infants (500 mg/day) was “improved infant pulmonary function and significantly decreased wheezing through age 1 year”. Also, the “maintenance of vitamin C concentrations” value in series [1] (100 mg supplementation) is “enough to maintain a constant leukocyte concentration (storage) of vitamin C, but not enough to maintain plasma concentrations”. Besides, the “plasma level as % of level at 2500 mg” value in series [1] (steady-state 100 mg/day) was “approximately 79%”; in series [1] (steady-state 200 mg/day), roughly 88%; in series [1] (steady-state 400 mg/day), roughly 95%; in series [1] (steady-state 1000 mg/day), roughly 97%. In addition, the “Tolerable Upper Limit for Pregnant Women” value (Table 12) is reported as 2000 mg.
Regarding `[Cu]` [Copper], in the series with pregnant women (second trimester), the “decrease in anxiety symptoms” value was 45% and the decrease in depression is listed as 75%. Further, in the series on pregnant women (third trimester), the “decrease in anxiety symptoms” value is listed as 80% and the decrease in depression is given as 90%. For the same compound, the copper levels result in series [1] (2 mg as part of a multi-vitamin/mineral supplement, France) was “no difference in copper levels between treatment and placebo groups”. For the same compound, for the setting “Table 18”, the “Tolerable Upper Limit for Pregnant Women” value is listed as 10 mg.
On to `[Mn+2]` [Manganese], for which, in series [2], the “risk of ASD, OR” value is on record as 1.84. For the same compound, for the setting “Table 18”, the “Tolerable Upper Limit for Pregnant Women” value is 11 mg.
For `[Mg]` [Magnesium], the “rate of pregnancy-induced hypertension” value in the series with pregnant women (Angola and China studies combined, 201 participants (vs. 21% placebo)) is reported as 4%. For the same compound, the rate of edema in the series on pregnant women (Angola study (vs. 58%)) was 24%. The “perinatal and maternal composite outcome” value in the series on infants (300 mg/day of elemental magnesium, Brazil) is listed as “did not find any effect on perinatal composite outcome”. Moreover, in the series on infants (metanalysis of six RCT's, 3068 pregnant women), the “preterm birth, RR” value was 0.58. Besides, in series [1] (345 mg/day), the magnesium blood levels result was “enough to keep magnesium levels stable”. The tolerability result (supplementation studies, 184-500 mg/day) is on record as “well-tolerated”.
As to `O[C@H]1[C@H](O)[C@@H](O)[C@H](O)[C@@H](O)[C@H]1O` [Inositol, Myo-inositol], the gestational diabetes entry is “significant decrease in gestational diabetes compared to placebo” with pregnant women (2000 mg/day, 223 overweight, non-obese pregnant women); 11% in the series on pregnant women (4000 mg/day, women at risk of gestational diabetes (vs. 25%)); “greatly reduced gestational diabetes (GD)” in the series on pregnant women (4 grams per day, at risk women). Moreover, the macrosomia in the series with infants (4000 mg/day, women at risk of gestational diabetes (vs 5.3%)) is 2.1%. Also, the preterm birth in the series with infants (4000 mg/day, women at risk of gestational diabetes (vs. 7.6%)) is 3.4%. Also, in the series with infants (4000 mg/day, women at risk of gestational diabetes (vs. 8.9%)), the “large for gestational age” value is recorded as 4.8%. For the same compound, the side effects result (high doses up to 18 grams per day) is “Only some mild diarrhea” and the side effects result (less than 6 grams per day) is given as “zero side effects”.
Take `CC1=C(/C=C/C(C)=C/C=C/C(C)=C/CO)C(C)(C)CCC1` [Vitamin A, retinol]: in the series on pregnant women (Nepal, 7000 mcg/week), the “reduction of night blindness during pregnancy” value was 67%. In addition, the “risk of anemia, RR” value in the series on pregnant women (meta-analysis of 8 studies, supplementation) was 0.81. Further, the “vitamin A levels lower than healthy non-pregnant controls” value in series [1] (5000 IU/day (50% as beta carotene), first, second, third trimesters) was 27%. Further, for the setting “Table 12”, the “Tolerable Upper Limit for Pregnant Women” value is 3 mg.
Vitamin E: the “risk of congenital heart defects, times higher” value in series [3] is given as 5-9. Also, the “risk of placental abruption, RR” value in the series on pregnant women (Cochrane, alpha-tocopherol 200-800 IU with other supplements, 7 trials, 14,922 participants) is reported as 0.64. Besides, in the series with infants (about 450 mg/day (about 675 IU/day), non-randomized (vs. 9.3%)), the “rate of preterm births” value is listed as 6.6%. Moreover, the “rate of preterm births in women with preeclampsia” value in the series with infants (approximately 200-600 mg/day (vs. 10.4% unsupplemented)) is 8.6%. In addition, the “increase of vitamin E levels by third trimester” value in series [1] (30 IU, US) was 50%. For the same compound, the “Tolerable Upper Limit for Pregnant Women” value (Table 12) was 1000 mg.
For the compound `[Cr]` [Chromium], the pregnancy rate in series [4] (200 i.g for eight weeks, non-pregnant women with polycystic ovary syndrome (vs. 3%)) was 17%. The atypical depression entry in series [4] (400-600 i.g/day) is on record as “helpful for atypical depression”. Moreover, in series [4] (setting [5]), the adverse events result was “no difference in the adverse events between chromium and placebo”; the “glycemic control and lipids” value was “improved glycemic control, reduced triglycerides, and increased HDL-C”. In addition, the “fasting plasma glucose and insulin levels” value in the series with pregnant women (4 i.g/kg, 24 women with gestational diabetes, U.S.) is “significantly improved their fasting plasma glucose and insulin levels”.
Take `Cc1ncc(CO)c(CO)c1O` [Vitamin B6, Pyridoxine]: in the series with pregnant women (20 mg/day), the “dental decay during pregnancy” value is “significantly reduced the rate of dental decay during pregnancy”. Moreover, the symptoms of nausea result in the series on pregnant women (25 mg every 8 hours for 3 days) is recorded as “decrease symptoms of nausea”. For the same compound, in the series on infants (2 mg), the “effect on birth weight” value is listed as “sufficient to improve birth weight”. Further, for the setting “Table 12”, the “Tolerable Upper Limit for Pregnant Women” value is reported as 100 mg.
Turning to chromium picolinate, the “comparison of chromium forms” value in series [4] (setting [5]) is “the form with the greatest effects on glucose and triglyceride levels”.
